Test results taken from US7247321B2, “Skin whitening compositions containing asparagus extract” (Access Business Group International LLC, priority 2003, dated 2007).

Test system: mouse derived immortalized melanocyte cells (M3)
Assay: Suppression of melanogenesis in vitro (melanin extracted, optical density at 405 nm; visual count of melanized cells)
Format: cell-based
Settings: Treatment Dose 0.100%; M3 melanocytes, treated days 1, 3, 5; melanin extracted day 6, OD 405 nm

`O=C1O[C@H]([C@@H](O)CO)C(O)=C1O` [Ascorbic Acid] was tested, and the “% Control Melanin” value was 51%.
